Patent US6440952B2, “Phosphono-carboxylate compounds for treating amyloidosis” (Queen's University at Kingston, priority 1999, dated 2002)
Structures can show the parent of a compound that is named as a salt.

What was measured:
Aβ peptide = molecular target: T1, Aβ peptide (Homo sapiens, UniProt P05067); assay: in vitro circular dichroism (CD) assay for formation of β-sheet secondary structure; type: biochemical; details: Aβ peptide with test compound in 10 mM Tris-HCl pH 7, incubated 0 or 24 hours at 37° C.
T1 construct: Aβ is a 40 amino acid protein associated with Alzheimer's disease; made in house; host or cells: chemical solid-phase peptide synthesis (no expression host)
T1 sequence (P05067 672-711 limits assumed): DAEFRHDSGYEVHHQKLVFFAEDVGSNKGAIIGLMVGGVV
Description: It is known that amyloidogenic peptides or proteins which have formed amyloid deposits or plaques have a significant amount of β-sheet secondary structure, while the unaggregated peptide or protein generally has less β-sheet structure. It is believed that the ability of a candidate therapeutic compound to prevent the formation of β-sheet secondary structure in vitro may be correlated with the ability of the compound to inhibit amyloidogenesis in vivo. Accordingly, phosphonate compounds were assayed for ability to prevent the formation of β-sheet secondary structure in assay systems including an in vitro circular dichroism (CD) assay.
Aβ is a 40 amino acid protein associated with Alzheimer's disease. Aβ peptide was prepared and purified as described in Fraser, P. E. et al., Biochemistry 31, 10716 (1992). Briefly, the peptide was synthesized by standard solid-phase techniques and purified by HPLC according to well known procedures.
All CD experiments were performed on a commercially available instrument. The cell is was maintained at 25° C. using a circulating water bath. Computer-averaging of traces was performed to improve signal-to-noise ratios. The solvent signal was subtracted. CD experiments were performed for each test compound according to the following procedure:
A stock solution of purified peptide was made by dissolving the peptide in phosphate-buffered saline (PBS) to a concentration of 2 mg/ml. A test solution was made for each potential therapeutic agent (test compound) as shown below:
The control sample had no test compound, and a total of 5 μl distilled water was added. The test solution was incubated for either 0 or 24 hours at 37° C. before CD measurement. The size minimum in the CD spectrum at 218 nm is believed to be diagnostic of the presence of β-pleated sheet. Comparison of the minimum at 218 nm of a candidate compound, compared to the minimum of a control sample, is believed to be indicative of the ability of the candidate compound to inhibit the formation of β-pleated sheet.

[1] = test system: cortical/hippocampal neuronal cultures; assay: neurotoxicity in cortical/hippocampal neuronal cultures; type: cell-based; details: concentrations ranging from 10^−7M to 10^−4 M
amyloid peptide = molecular target: T2, amyloid peptide (Homo sapiens, UniProt P05067); assay: amyloid peptide solubility assay (overnight incubation, centrifugation, determination of soluble peptide); type: biochemical; details: compound and amyloid peptide incubated together overnight, preliminary result, buffer composition may have interfered
T2 construct: Aβ is a 40 amino acid protein associated with Alzheimer's disease
T2 sequence (P05067 672-711 limits assumed): as above

Structure (SMILES)	reduction of β-sheet formation as measured by the CD assay (minimum at 218 nm versus control) (Aβ peptide)	neurotoxicity [1]	effect on amyloid peptide solubility (amyloid peptide)
O=C(O)CCP(=O)(O)O [2 carboxyethylphosphonic acid]	lower ability to prevent β-pleated sheet formation	–	–
O=C(O)P(=O)(O)O [phosphonoformate trisodium salt, Trisodium phosphonoformate]	significantly and reproducibly reduce the amount of β-sheet formation	no significant toxicity	little effect on amyloid peptide solubility
O=C(O)CP(=O)(O)O [Phosphonoacetate]	active	–	–
